Drawing on patent US20230279020A9, “CARM1 INHIBITORS AND USES THEREOF” (Epizyme, Inc., priority 2013, published 2023), this text covers IC50 for 63 compounds.

A value given as a limit tells only on which side of the number the result lay.

Human CARM1 (PRMT4), sequence (Q86X55 other isoform, or with tags, fused parts or gaps isoform Q86X55-1): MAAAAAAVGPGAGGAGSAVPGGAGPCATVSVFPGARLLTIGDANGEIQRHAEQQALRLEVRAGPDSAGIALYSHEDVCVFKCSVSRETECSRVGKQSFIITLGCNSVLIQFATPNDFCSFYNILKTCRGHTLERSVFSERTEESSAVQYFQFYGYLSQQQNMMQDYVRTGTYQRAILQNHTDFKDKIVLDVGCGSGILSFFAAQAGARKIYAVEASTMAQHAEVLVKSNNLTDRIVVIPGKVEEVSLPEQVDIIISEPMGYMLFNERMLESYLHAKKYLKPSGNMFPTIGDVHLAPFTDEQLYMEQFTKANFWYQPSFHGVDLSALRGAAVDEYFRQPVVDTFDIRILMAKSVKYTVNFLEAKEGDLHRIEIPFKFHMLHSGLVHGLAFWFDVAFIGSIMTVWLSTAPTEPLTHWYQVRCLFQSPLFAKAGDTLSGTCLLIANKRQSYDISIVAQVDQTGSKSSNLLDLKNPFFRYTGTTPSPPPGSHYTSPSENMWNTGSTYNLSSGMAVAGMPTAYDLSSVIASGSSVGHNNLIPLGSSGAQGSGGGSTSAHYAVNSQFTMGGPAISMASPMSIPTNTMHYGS

The assay concerns the target Human CARM1 (PRMT4) (Homo sapiens (Human), UniProt Q86X55). The assay is described as follows: CARM1 enzyme assay on peptide substrate (3H-SAM Flashplate). To be noted: Biochemical potencies, classification codes; read-out: Biochem IC50.
One may read the IC50 as the concentration that inhibits the measured activity by half. As to `CNCC(O)COc1cccc(-c2nc(-c3c(C)noc3C)cc(N3CCN(S(C)(=O)=O)[C@@H](C)C3)n2)c1` (stereo partly drawn) [Example 92-1a], the 50% inhibitory concentration (IC50) is below 100 nM. The figure for `CNCC(O)COc1cccc(-c2nc(N[C@H]3C[C@H](O)C3)cc(-c3c(C)noc3C)n2)c1` (stereo partly drawn) [Example 43-1a] is below 100 nM; for `CNC[C@@H](O)COc1ccc(Cl)c(-c2nc(N[C@@H]3CO[C@H](C)C3)c(Cl)c(-c3c(C)noc3C)n2)c1` [Example 180-3] it is below 100 nM. In the case of `CNCC(O)COc1cccc(-c2nc(N[C@H]3C[C@@H](C(C)(C)O)C3)c(C)c(-c3c(C)noc3C)n2)c1` (stereo partly drawn) [Example 232-1a], the IC50 is below 100 nM.

Consider `CNCC(O)COc1cccc(-c2nc(NC3CCOCC3)cc(-c3cccc4ncccc34)n2)c1` (stereo not drawn) [Example 53-1], for which the IC50 is below 100 nM. With `CNCC(O)COc1cccc(-c2nc(-c3ccc(OC)c(OC)c3)cc(N(CCOC)CCOC)n2)c1` (stereo not drawn) [Example 64-1], the IC50 is below 100 nM. For the compound `CNCC(O)COc1ccc(Cl)c(-c2nc(NC3(C)CCOCC3)c(Cl)c(-c3c(C)noc3C)n2)c1` (stereo not drawn) [Example 137-1a], the half-maximal inhibitory concentration (IC50) is below 100 nM. With `CNC[C@H](O)COc1ccc(F)c(-c2nc(N[C@H]3CCN(C4CC4)C[C@H]3F)c(C)c(-c3c(C)noc3C)n2)c1` [Example 99-3], the IC50 was below 100 nM. As to `CNCC(O)COc1cccc(-c2nc(-c3c(C)noc3C)c(C)c(N3CC[C@H](N(C)C(C)=O)C3)n2)c1` (stereo partly drawn) [Example 71-1a], the IC50 was below 100 nM. With `CNCC(O)COc1cccc(-c2nc(N[C@@H]3CCOC3)c(C)c(N3C[C@H]4C[C@@H]3CN4C)n2)c1` (stereo partly drawn) [Example 443-1a], the IC50 was below 100 nM. Take `CNCC(O)COc1cccc(-c2nc(N3CCN(C)[C@@H](C)C3)cc(N(C)C3CCOCC3)n2)c1` (stereo partly drawn) [Example 502-1a]: the IC50 is below 100 nM.

For `CNCC(O)COc1cccc(-c2nc(N3CC4(CCNCC4)c4ccccc43)cc(N(C)C3CCOCC3)n2)c1` (stereo not drawn) [Example 559-1a], the concentration for half-maximal inhibition (IC50) is below 100 nM. The figure for `CNC[C@H](O)COc1ccc(Cl)c(-c2nc(-c3c(C)noc3C)c(C)c(N3Cc4ccncc4C3)n2)c1` [Example 90-3] is below 100 nM.

Consider `CNCC(O)COc1cccc(-c2nc(N[C@H]3CC[C@H](O)CC3)cc(-c3c(C)noc3C)n2)c1` (stereo partly drawn) [Example 32-1a], for which the IC50 was below 100 nM.

In the case of `CNCC(O)COc1cccc(-c2nc(N3CCC4(CCO4)CC3)cc(N(C)C3CCOCC3)n2)c1` (stereo not drawn) [Example 579-1a], the IC50 was below 100 nM.

On to `CNCC(O)COc1cccc(-c2nc(OCC3CCN(C(=O)OCc4ccccc4)CC3)c(C)c(-c3c(C)noc3C)n2)c1` (stereo not drawn) [Example 259-1a], for which the IC50 was below 100 nM.

Regarding `CNCC(O)COc1cccc(-c2nc(NC3CCOC3)c(C)c(N3CCN(CCF)CC3)n2)c1` (stereo not drawn) [Example 446-1a], the 50% inhibitory concentration (IC50) was below 100 nM. Consider `CCO[C@@H]1CCC[C@H]1Nc1nc(-c2cc(OC[C@H](O)CNC)ccc2F)nc(-c2c(C)noc2C)c1C` [Example 191-3], for which the IC50 is below 100 nM. The figure for `C=C(C)c1cc(N(C)C2CCOCC2)nc(-c2cccc(OCC(O)CNC)c2)n1` (stereo not drawn) [Example 11-1] is below 100 nM.

With `C=C(C)c1nc(-c2cccc(OCC(O)CNC)c2)cc(N(C)C2CCOCC2)n1` (stereo not drawn) [Example 5-2], the IC50 was below 100 nM.

For `CNC[C@H](O)COc1ccc(Cl)c(-c2nc(NC3CCN(C(=O)OC)CC3)c(C)c(-c3c(C)noc3C)n2)c1` [Example 89-3], the half-inhibitory concentration (IC50) is below 100 nM.

Consider `CNCC(O)COc1cccc(-c2nc(NC3CN(C(=O)C4CC4)C3)c(C)c(-c3c(C)noc3C)n2)c1` (stereo not drawn) [Example 264-1a], for which the IC50 is below 100 nM.

Consider `CNCC(O)COc1cccc(-c2nc(-c3cnc4ncccn34)cc(N(C)C3CCOCC3)n2)c1` (stereo not drawn) [Example 489-1a], for which the IC50 was below 100 nM. In the case of `CCOC(=O)N1CCC2(C1)CN(c1nc(-c3cc(OC[C@H](O)CNC)ccc3Cl)nc(-c3c(C)noc3C)c1C)C2` [Example 287-3], the concentration for half-maximal inhibition (IC50) was below 100 nM. For `CNCC(O)COc1cc(NC)cc(-c2nc(NC3CCOCC3)c(C)c(-c3c(C)noc3C)n2)c1` (stereo not drawn) [Example 136-1a], the IC50 is below 100 nM. For the compound `CNC[C@@H](O)COc1ccc(F)c(-c2nc(-c3c(C)noc3C)c(C)c(N3Cc4nccnc4C3)n2)c1` [Example 226-3], the IC50 was below 100 nM.

In the case of `CNC[C@@H](O)COc1ccc(Cl)c(-c2nc(N[C@H]3C[C@@H](C)O[C@@H](C)C3)c(Cl)c(-c3c(C)noc3C)n2)c1` [Example 173-3], the IC50 is below 100 nM. Consider `CNCC(O)COc1cccc(-c2nc(Nc3nccn3C)c(C)c(-c3c(C)noc3C)n2)c1` (stereo not drawn) [Example 18-3], for which the IC50 was below 100 nM. `CNCC(O)COc1cccc(-c2nc(N[C@@H]3CCN(C(=O)OC(C)(C)C)C[C@@H]3F)c(C)c(-c3c(C)noc3C)n2)c1` (stereo partly drawn) [Example 227-1a]: the concentration for half-maximal inhibition (IC50) is below 100 nM.

On to `CNCC(O)COc1cccc(-c2nc(N3CCNCC3)c(C)c(N(C)C3CCOCC3)n2)c1` (stereo not drawn) [Example 560-1a], for which the concentration for half-maximal inhibition (IC50) was below 100 nM. Regarding `CNCC(O)COc1cccc(-c2nc(-c3c(C)noc3C)c(C)c(N3CCN(C(=O)C(F)F)CC3)n2)c1` (stereo not drawn) [Example 107-1a], the IC50 was below 100 nM.

Turning to `CNC[C@@H](O)COc1ccc(Cl)c(-c2nc(-c3c(C)noc3C)c(C)c(N3CCc4nc(C)sc4C3)n2)c1` [Example 141-3], the IC50 is below 100 nM. As for `CNCC(O)COc1cccc(-c2nc(N[C@@H]3CCOC3)c(C)c(N3CC[C@@H](O)C3)n2)c1` (stereo partly drawn) [Example 437-1a], the IC50 is below 100 nM.

In the case of `CNC[C@@H](O)COc1ccc(Cl)c(-c2nc(-c3c(C)noc3C)c(Cl)c(N3CC4(CCOCC4)C3)n2)c1` [Example 229-3], the IC50 was below 100 nM. The figure for `CCN1CCN(c2cc(-c3c(C)noc3C)nc(-c3cccc(OCC(O)CNC)c3)n2)CC1` (stereo not drawn) [Example 20-1a] is below 100 nM; for `CNC[C@@H](O)COc1ccc(Cl)c(-c2nc(N[C@H]3CCO[C@@H](C)C3)c(Cl)c(-c3c(C)noc3C)n2)c1` [Example 149-3] it is below 100 nM. Consider `CNCC(O)COc1cccc(-c2nc(NC3CCOC3)c(C)c(N3CC4(CCNCC4)c4ccccc43)n2)c1` (stereo not drawn) [Example 398-1a], for which the IC50 is below 100 nM. The figure for `CNC[C@@H](O)COc1ccc(Cl)c(-c2nc(-c3c(C)noc3C)c(C)c(N3CC4(CCC4)C3)n2)c1` [Example 246-3] is below 100 nM; for `CNCC(O)COc1cccc(-c2nc(NC3CCS(=O)(=O)CC3)c(C)c(-c3c(C)noc3C)n2)c1` (stereo not drawn) [Example 59-1a] it is below 100 nM. Turning to `CNCC(O)COc1cccc(-c2cc(N(C)C3CCOCC3)nc(-c3cccnc3)n2)c1` (stereo not drawn) [Example 14-2], the IC50 was below 100 nM. Turning to `CNC[C@@H](O)COc1ccc(Cl)c(-c2nc(-c3c(C)noc3C)c(C)c(N3CCC3)n2)c1` [Example 238-3], the 50% inhibitory concentration (IC50) was below 100 nM. For the compound `CNCC(O)COc1cccc(-c2nc(-c3c(C)noc3C)c(C)c(N3CCS(=O)(=O)CC3)n2)c1` (stereo not drawn) [Example 57-1a], the half-maximal inhibitory concentration (IC50) was below 100 nM. With `CNC[C@@H](O)COc1ccc(Cl)c(-c2nc(-c3c(C)noc3C)c(C)c(N3Cc4cc(F)cnc4C3)n2)c1` [Example 157-3], the concentration for half-maximal inhibition (IC50) is below 100 nM.

`CNCC(O)COc1cccc(-c2nc(N[C@@H]3CCOC3)cc(-c3c(C)noc3C)n2)c1` (stereo partly drawn) [Example 11-1a]: the concentration for half-maximal inhibition (IC50) is below 100 nM. Regarding `CNCC(O)COc1cccc(-c2nc(NC3C4COCC43)c(C)c(-c3c(C)noc3C)n2)c1` (stereo not drawn) [Example 212-1a], the concentration for half-maximal inhibition (IC50) is below 100 nM. Consider `CNCC(O)COc1cccc(-c2nc(-c3ccc(N4CCOCC4)nn3)cc(N(C)C3CCOCC3)n2)c1` (stereo not drawn) [Example 512-1a], for which the IC50 is below 100 nM. Turning to `CNC[C@@H](O)COc1ccc(C(F)(F)F)c(-c2nc(-c3c(C)noc3C)c(C)c(N3Cc4cncnc4C3)n2)c1` [Example 247-3], the IC50 was below 100 nM. As to `CNCC(O)COc1cccc(-c2cc(N(C)C3CCOCC3)nc(C(C)C)n2)c1` (stereo not drawn) [Example 6-2], the half-maximal inhibitory concentration (IC50) was below 100 nM. In the case of `CNCC(O)COc1cc(OC)cc(-c2nc(NC3CCOCC3)c(C)c(-c3c(C)noc3C)n2)c1` (stereo not drawn) [Example 75-1a], the IC50 was below 100 nM. `CNCC(O)COc1cccc(-c2nc(-c3cnn(CC(C)C)c3)cc(N(C)CCC#N)n2)c1` (stereo not drawn) [Example 41-1]: the IC50 is below 100 nM. The same measure for `CNCC(O)COc1cccc(-c2nc(NC3CCN(CC(F)F)C3)c(C)c(-c3c(C)noc3C)n2)c1` (stereo not drawn) [Example 195-1a]: below 100 nM. On to `CCOC(=O)N1CC2(CCCN(c3nc(-c4cccc(OCC(O)CNC)c4)nc(-c4c(C)noc4C)c3C)C2)C1` (stereo not drawn) [Example 295-1a], for which the half-maximal inhibitory concentration (IC50) was below 100 nM. The same measure for `CNCC(O)COc1cccc(-c2nc(N[C@H]3CCC[C@H]3O)c(C)c(-c3c(C)noc3C)n2)c1` (stereo partly drawn) [Example 218-1a]: below 100 nM; for `CNCC(O)COc1cccc(-c2nc(-c3c(C)noc3C)c(C)c(N3CCOC(C)(C)C3)n2)c1` (stereo not drawn) [Example 200-1a]: below 100 nM; for `CNCC(O)COc1cccc(-c2nc(N[C@@H]3CCOC3)c(C)c(N3CCN(CC(F)F)CC3)n2)c1` (stereo partly drawn) [Example 458-1a]: below 100 nM. As for `CNCC(O)COc1cccc(-c2nc(N[C@H]3C[C@H](C(C)(C)O)C3)c(C)c(-c3c(C)noc3C)n2)c1` (stereo partly drawn) [Example 231-1a], the IC50 was below 100 nM. The figure for `CNC[C@@H](O)COc1ccc(Cl)c(-c2nc(-c3c(C)noc3C)c(C)c(N3Cc4cnn(C)c4C3)n2)c1` [Example 140-3] is below 100 nM; for `CNCC(O)COc1cccc(-c2nc(-c3ncc(C)n3C)cc(N(C)C3CCOCC3)n2)c1` (stereo not drawn) [Example 491-1a] it is below 100 nM. The figure for `CNCC(O)COc1cccc(-c2nc(NC3CCN(C(=O)N(C)C)CC3)c(C)c(-c3c(C)noc3C)n2)c1` (stereo not drawn) [Example 244-1a] is below 100 nM. The same measure for `CNCC(O)COc1cccc(-c2nc(NCC3(OC)CCOCC3)c(C)c(-c3c(C)noc3C)n2)c1` (stereo not drawn) [Example 300-1a]: below 100 nM. As for `CNCC(O)COc1cccc(-c2nc(N[C@@H]3CCN(C(=O)OC)C[C@@H]3F)c(C)c(-c3c(C)noc3C)n2)c1` (stereo partly drawn) [Example 225-1a], the IC50 is below 100 nM.

For the compound `CNC[C@@H](O)COc1ccc(Cl)c(-c2nc(-c3c(C)noc3C)c(C)c(N3Cc4cccc(F)c4C3)n2)c1` [Example 267-3], the IC50 is below 100 nM. For the compound `CNC[C@@H](O)COc1ccc(F)c(-c2nc(-c3c(C)noc3C)c(C)c(N3Cc4cc(Cl)cnc4C3)n2)c1` [Example 185-3], the IC50 was below 100 nM.
